The values below come from patent publication US20260166159A1, “KRAS G12D DEGRADATION AGENT, AND PREPARATION METHOD AND USE THEREFOR” (LEADINGTAC PHARMACEUTICAL (SHAOXING) CO., LTD., priority 2022, published 2026).

Some results are limits rather than exact numbers.

Common to all, as to type: cell-based
The target in assay [1] is T1, KRAS-G12D (Homo sapiens, UniProt P01116, G12D).
T1 construct: endogenous in cells; host or cells: A-427 (ATCC), AGS, AsPc-1, Panc 04.03
The assay can be described thus: KRAS-G12D degradation assay (Western Blot), AGS cells. The following applies: 24 h. In a few lines: (§1)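 Western blotting of lysates (5 μg protein) quantified KRAS against a β-actin reference after 24 h exposure to compound at final 0.03–3000 nM in 0.25% DMSO. Cells were A-427, AGS, AsPc-1 or Panc 04.03, all KRAS G12D, at 5×10^5/well. Degradation versus control yielded DC50 and Dmax.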

The target in assay [2] is T1, KRAS-G12D. The assay can be described thus: KRAS-G12D degradation assay (Western Blot), AsPc-1 cells. The following applies: for DC50: 24 h; for Dmax: ASPC1, 24 h. The method in brief:
as §1

Assay [3] has as its target T1, KRAS-G12D. Description: KRAS-G12D degradation assay (Western Blot), Panc 04.03 cells. As to conditions: 24 h. The method in brief:
as §1

In assay [4] the test system is KRAS G12D mutant human metastatic pancreatic cancer cell AsPc-1. The assay can be described thus: 3D cell proliferation inhibition assay, AsPc-1. As to conditions: ASPC1, 168 h, AsPc-1, 7 days, CTG. The method in brief: (§2)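 A 7-day 3D growth at 37 °C, 5% CO2, 5×10^2 cells/well, with final compound concentrations of 10000–0.026 nM and 0.2% DMSO. Read-out: CTG luminescence (60 min, room temperature); % inhibition against DMSO-treated cells and medium blank, fitted versus log concentration to give IC50.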

The test system of assay [5] is KRAS G12D mutant human pancreatic cancer cell Panc 04.03. Description: 3D cell proliferation inhibition assay, Panc 04.03. As to conditions: 168 h, Panc 04.03, 7 days, CTG. In a few lines:
as §2

The test system of assay [6] is KRAS G12D mutant human pancreatic cancer cell HPAC. Description: 3D cell proliferation inhibition assay, HPAC. The following applies: 168 h, 7 days, CTG. In a few lines: as §2

T1 sequence (P01116 1-188 isoform P01116-2 G12D): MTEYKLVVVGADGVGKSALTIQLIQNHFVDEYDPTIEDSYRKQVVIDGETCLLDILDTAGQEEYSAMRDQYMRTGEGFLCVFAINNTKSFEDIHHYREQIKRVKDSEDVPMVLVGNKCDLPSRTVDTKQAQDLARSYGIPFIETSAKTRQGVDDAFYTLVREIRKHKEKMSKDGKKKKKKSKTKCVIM

On to `CCc1c(F)ccc2cc(O)cc(-c3ncc4c(N5CC6CCC(C5)N6)nc(OCC5(CN6CCN(CC7CCC8(CC7)CCN(C(=O)c7ccc(OC)c(N9CCC(=O)NC9=O)c7)CC8)CC6)CC5)nc4c3F)c12` [Example 15, 1-(5-(9-((4-((1-(((4-(3,8-diazabicyclo[3.2.1]octan-3-yl)-7-(8-ethyl-7-fluoro-3-hydroxynaphthalen-1-yl)-8-fluoropyrido[4,3-d]pyrimidin-2-yl)oxy)methyl)cyclopropyl)methyl)piperazin-1-yl)methyl)-3-azaspiro[5.5]undecane-3-carbonyl)-2-methoxyphenyl)dihydropyrimidine-2,4(1H,3H)-dione], for which the half-maximal degradation concentration (DC50) at KRAS-G12D [1] worked out at 2.17 nM; on KRAS-G12D [2], 13 nM; at KRAS-G12D [3] it was 16.6 nM. Further, the Dmax came out at 99.6% on KRAS-G12D [1], 99.3% on KRAS-G12D [2] and 98.9% on KRAS-G12D [3]. The IC50 in assay [4] (class symbols) is at most 50 nM; in assay [5] (class symbols) it was at most 50 nM; in assay [6] it was 4.06 nM.

For `C#Cc1c(F)ccc2cc(O)cc(-c3ccc4c(N5CC6CCC(C5)N6)nc(OCC5(CN6CCN(CC7CCC8(CC7)CCN(C(=O)c7ccc(C)c(N9CCC(=O)NC9=O)c7)CC8)CC6)CC5)nc4c3F)c12` [Example 42, 1-(5-(9-((4-((1-(((4-(3,8-diazabicyclo[3.2.1]octan-3-yl)-7-(8-ethynyl-7-fluoro-3-hydroxynaphthalen-1-yl)-8-fluoroquinazolin-2-yl)oxy)methyl)cyclopropyl)methyl)piperazin-1-yl)methyl)-3-azaspiro[5.5]undecane-3-carbonyl)-2-methylphenyl)dihydropyrimidine-2,4(1H,3H)-dione], the DC50 at KRAS-G12D [1] amounted to 11.8 nM; at KRAS-G12D [2], 0.22 nM; on KRAS-G12D [3], 7.46 nM. Further, the greatest degradation seen (Dmax) on KRAS-G12D [1] was 77.4%; on KRAS-G12D [2], 100%; at KRAS-G12D [3], 100%. The IC50 came to 1.75 nM in assay [4] (numeric values), 8.41 nM in assay [5] (numeric values) and 2.96 nM in assay [6].

As to `CCc1cccc2cc(O)cc(-c3ncc4c(N5CC6CCC(C5)N6)nc(OCC5(CN6CCN(CC7CCC8(CC7)CCN(C(=O)c7ccc(OC)c(N9CCC(=O)NC9=O)c7)CC8)CC6)CC5)nc4c3F)c12` [Example 20, 1-(5-(9-((4-((1-(((4-(3,8-diazabicyclo[3.2.1]octan-3-yl)-7-(8-ethyl-3-hydroxynaphthalen-1-yl)-8-fluoropyrido[4,3-d]pyrimidin-2-yl)oxy)methyl)cyclopropyl)methyl)piperazin-1-yl)methyl)-3-azaspiro[5.5]undecane-3-carbonyl)-2-methoxyphenyl)dihydropyrimidine-2,4(1H,3H)-dione], the DC50 on KRAS-G12D [1] worked out at 19.9 nM; at KRAS-G12D [2], 0.57 nM; at KRAS-G12D [3], 15.1 nM. For the same compound, the Dmax on KRAS-G12D [1], at KRAS-G12D [2] and at KRAS-G12D [3] was 100% in each case. Further, the half-inhibitory concentration (IC50) in assay [4] (numeric values) stood at 3.27 nM; in assay [5] (numeric values), 10.5 nM.

Turning to `C#Cc1c(F)ccc2cc(O)cc(-c3ncc4c(N5CC6CCC(C5)N6)nc(OCC(C)CN5CCN(CC6CCC7(CC6)CCN(C(=O)c6ccc(OC)c(N8CCC(=O)NC8=O)c6)CC7)CC5)nc4c3F)c12` (stereo not drawn) [Example 84, 1-(5-(9-((4-(3-((4-(3,8-diazabicyclo[3.2.1]octan-3-yl)-7-(8-ethynyl-7-fluoro-3-hydroxynaphthalen-1-yl)-8-fluoropyrido[4,3-d]pyrimidin-2-yl)oxy)-2-methylpropyl)piperazin-1-yl)methyl)-3-azaspiro[5.5]undecane-3-carbonyl)-2-methoxyphenyl)dihydropyrimidine-2,4(1H,3H)-dione], the DC50 stood at 3.82 nM at KRAS-G12D [1], 0.71 nM at KRAS-G12D [2] and 1.99 nM on KRAS-G12D [3]. Besides, the figures for the Dmax on KRAS-G12D [1], on KRAS-G12D [2] and on KRAS-G12D [3] were 92.2%, 99.6% and 98.6%, respectively. The IC50 came to 2.58 nM in assay [4] (numeric values), 17 nM in assay [5] (numeric values) and 1.3 nM in assay [6].

Turning to `C#Cc1c(F)ccc2cc(O)cc(-c3ncc4c(N5CC6CCC(C5)N6)nc(OCC5(CN6CCN(CCCCC7CCC8(CC7)CCN(C(=O)c7ccc(Cl)c(N9CCC(=O)NC9=O)c7)CC8)CC6)CC5)nc4c3F)c12` [Example 31, 1-(5-(9-(4-(4-((1-(((4-(3,8-diazabicyclo[3.2.1]octan-3-yl)-7-(8-ethynyl-7-fluoro-3-hydroxynaphthalen-1-yl)-8-fluoropyrido[4,3-d]pyrimidin-2-yl)oxy)methyl)cyclopropyl)methyl)piperazin-1-yl)butyl)-3-azaspiro[5.5]undecane-3-carbonyl)-2-chlorophenyl)dihydropyrimidine-2,4(1H,3H)-dione], the IC50 in assay [4] (numeric values) was 5.62 nM; in assay [5] (numeric values), 22.2 nM.

The compound `C#Cc1c(F)ccc2cc(O)cc(-c3ncc4c(N5CC6CCC(C5)N6)nc(OCC5(CN6CCN(CC7CCC8(CC7)CCN(C(=O)c7ccc(C)c(N9CCC(=O)NC9=O)c7)CC8)CC6)CC5)nc4c3F)c12` [Example 36, 1-(5-(9-((4-((1-(((4-(3,8-diazabicyclo[3.2.1]octan-3-yl)-7-(8-ethynyl-7-fluoro-3-hydroxynaphthalen-1-yl)-8-fluoropyrido[4,3-d]pyrimidin-2-yl)oxy)methyl)cyclopropyl)methyl)piperazin-1-yl)methyl)-3-azaspiro[5.5]undecane-3-carbonyl)-2-methylphenyl)dihydropyrimidine-2,4(1H,3H)-dione] came in with a 50% inhibitory concentration (IC50) in assay [6] of 1.19 nM.

For `C#Cc1c(F)ccc2cc(O)cc(-c3ncc4c(N5CC6CCC(C5)N6)nc(OCC5(CN6CCN(CC7CCC8(CC7)CCN(C(=O)c7ccc(Cl)c(N9CCC(=O)NC9=O)c7)CC8)CC6)CC5)nc4c3F)c12` [Example 6, 1-(5-(9-((4-((1-(((4-(3,8-diazabicyclo[3.2.1]octan-3-yl)-7-(8-ethynyl-7-fluoro-3-hydroxynaphthalen-1-yl)-8-fluoropyrido[4,3-d]pyrimidin-2-yl)oxy)methyl)cyclopropyl)methyl)piperazin-1-yl)methyl)-3-azaspiro[5.5]undecane-3-carbonyl)-2-chlorophenyl)dihydropyrimidine-2,4(1H,3H)-dione], the half-maximal degradation concentration (DC50) worked out at 7.91 nM on KRAS-G12D [1], 2.9 nM at KRAS-G12D [2] and 21.7 nM at KRAS-G12D [3]. Also, the Dmax on KRAS-G12D [1] was 100%; on KRAS-G12D [2] it was 100%; on KRAS-G12D [3], 99.9%. In addition, the IC50 in assay [6] came to 5.35 nM.

`C#Cc1cccc2cc(O)cc(-c3ncc4c(N5CC6CCC(C5)N6)nc(OCC5(CN6CCN(CC7CCC8(CC7)CCN(C(=O)c7ccc(Cl)c(N9CCC(=O)NC9=O)c7)CC8)CC6)CC5)nc4c3F)c12` [Example 57, 1-(5-(9-((4-((1-(((4-(3,8-diazabicyclo[3.2.1]octan-3-yl)-7-(8-ethynyl-3-hydroxynaphthalen-1-yl)-8-fluoropyrido[4,3-d]pyrimidin-2-yl)oxy)methyl)cyclopropyl)methyl)piperazin-1-yl)methyl)-3-azaspiro [5.5]undecane-3-carbonyl)-2-chlorophenyl)dihydropyrimidine-2,4(1H,3H)-dione]: the DC50 on KRAS-G12D [1] was found to be 0.69 nM; at KRAS-G12D [2], 15 nM; at KRAS-G12D [3] it was 8.95 nM. Besides, the Dmax at KRAS-G12D [1] turned out to be 94.2%; at KRAS-G12D [2], 99.5%; at KRAS-G12D [3], 97.3%. The results for the IC50 in assay [4] (class symbols), in assay [5] (class symbols) and in assay [6] were at most 50 nM, at most 50 nM and 9.88 nM, respectively.
